Experiments:
WT mice [1] = experiment: Meningeal lymphatic vessel ablation (Visudyne plus photoconversion): lymphatic morphology; format: in vivo, mouse; conditions: 1 week after Visudyne i.c.m. plus transcranial photoconversion
Procedure: (§1) Adult 2 months-old WT mice were injected (i.c.m.) with Visudyne (5 μL) followed by a transcranial photoconversion step (Vis./photo.) to ablate meningeal lymphatic vessels. Control mice were injected with Visudyne without photoconversion (Vis.). One week later, mice were injected with 5 μL of a suspension of fluorescent microspheres (1 μm in diameter) into the CSF and 15 minutes later the lymphatic vessel afferent to the deep cervical lymph node (dCLN) was imaged by in vivo stereomicroscopy. Representative images of skull cap show microspheres and lymphatic vessels stained for LYVE-1 around the confluence of sinuses (COS) and transverse sinus (TS) at the dorsal brain meninges or around the sigmoid (SS) and petrosquamosal (PSS) sinuses at the basal brain meninges (scale bars, 500 μm). […]
Immunohistochemistry, imaging and quantifications. […]

WT mice [2] = experiment: In vivo measurement of CSF outflow into dCLNs (fluorescent microspheres); design: species or system mouse; conditions: 1 week after photoablation
Procedure: as §1
In vivo measurement of CSF outflow into dCLNs. […] Fluorescent microsphere drainage was analyzed in FIJI software by drawing a line demarcating the draining lymphatic vessel afferent to the dCLN and manually counting the beads passing the line by a blinded experimenter. […]

verteporfin [Visudyne]
lymphatic vasculature lining the transverse sinus (dorsal meninges) (WT mice [1]): efficient ablation | lymphatic vessels around the SS and PSS (basal meninges) (WT mice [1]): no significant changes | CSF drainage (microspheres from the CSF into the dCLNs) (WT mice [2]): significant reduction

Source: patent US20230067811A1, “MODULATING LYMPHATIC VESSELS IN NEUROLOGICAL DISEASE” (University of Virginia Patent Foundation, priority 2020, published 2023)
